Values after ≈ are worked out from the molar mass of the structure shown.
Assays:
HIV-1 (RF) = assay: HIV RNA assay: microplate based compound evaluation in HIV-1 infected MT-2 cells; format: cell-based; conditions: Human immunodeficiency virus 1, MT2, 72 h; HIV-1 (RF) infected MT-2 cells, 3 days of culture; virus dilution selected to standardize the inoculum; read-out: IC90 value (concentration of compound required to reduce the HIV RNA level by 90%)
Protocol: Plasmid pDAB 72 containing both gag and pol sequences of BH10 (bp 113-1816) cloned into PTZ 19R was prepared according to Erickson-Viitanen et al. AIDS Research and Human Retroviruses 1989, 5, 577. The plasmid was linearized with Bam HI prior to the generation of in vitro RNA transcripts using the Riboprobe Gemini system II kit (Promega) with T7 RNA polymerase. Synthesized RNA was purified by treatment with RNase free DNAse (Promega), phenol-chloroform extraction, and ethanol precipitation. RNA transcripts were dissolved in water, and stored at −70° C. The concentration of RNA was determined from the A260.
Biotinylated capture probes were purified by HPLC after synthesis on an Applied Biosystems (Foster City, Calif.) DNA synthesizer by addition of biotin to the 5′ terminal end of the oligonucleotide, using the biotin-phosphoramidite reagent of Cocuzza, Tet. Lett. 1989, 30, 6287. […]
MT-2 and MT-4 cells were maintained in RPMI 1640 supplemented with 5% fetal calf serum (FCS) for MT-2 cells or 10% FCS for MT-4 cells, 2 mM L-glutamine and 50 μg/mL gentamycin, all from Gibco. […] Infectious titers of HIV-1(RF) stocks were 1-3×10^7 PFU (plaque forming units) /mL as measured by plaque assay on MT-2 cells (see below). […]

SMILES	melting point [°C]	IC90 (HIV-1 (RF)) [mg/L]
CCCCN1C(=O)N(Cc2ccc3[nH]nc(N)c3c2)[C@H](Cc2ccccc2)[C@H](O)[C@@H](O)[C@H]1Cc1ccccc1 [Example 1, (4R,5S,6S,7R)-Hexahydro-1-[5-(3-aminoindazole)methyl]-3-butyl-5,6-dihydroxy-4,7-bis[phenylmethyl]-2H-1,3-diazapin-2-one]	129 to 131	
Nc1ccn([C@H]2CC[C@@H](CO)O2)c(=O)n1 [ddC, dideoxycytidine]		0.2 (≈ 0.947 µM)

Reference: patent publication US6451999B2, “1-(3-aminoindazol-5-yl)-3-butyl-cyclic urea useful as a HIV protease inhibitor” (Bristol-Myers Squibb Pharma Company, priority 1996, dated 2002)
